Experimental data as given in patent publication US20230047766A1, “MEDICAL DEVICE, THERAPEUTIC METHOD, AND DIAGNOSTIC METHODS FOR THE TREATMENT AND PREVENTION OF VASOSPASM” (Sylvian Inc., priority 2020, published 2023).

Tests used:
ET-1 = settings: intravenous; clinical trial databases; cited from earlier work
rats = test: intrathecal (IT) administration to rats: Evans blue distribution and maximum dose volume of saline for 30 minutes; settings: rat, in vivo
Experimental: A first experiment was conducted to establish a procedure of intrathecal (IT) administration to rats to determine the maximum dose volume by IT administration of saline for 30 minutes. An approximately 30 μL of 1.0% Evans blue solution was administered to 6 anesthetized rats via a catheter placed in the subarachnoid space in the cisternal magna. After administration, the animals were necropsied, and the central nervous system (CNS) including the brain and cervical spinal cord were macroscopically observed to verify the distribution of Evans blue solution. In addition, 0.125, 0.25, 0.5, and 1.0 mL of saline, which is considered to be respectively approximately ½, equal, 2-fold, and 4-fold of a total volume of CSF in rats, was administered to 1 or 3 unanesthetized rats per dose volume. Saline was administered for 30 minutes using an infusion pump. Clinical signs were observed during the dosing and until 1 hour after dosing. The animals were necropsied on the next day of dosing and the CNS were macroscopically observed.

dogs = test: intrathecal (IT) administration to dogs: Evans blue distribution and maximum dose volume of saline for 30 minutes; assay type: in vivo; settings: anesthetized dogs, approx. 1 mL of 0.5% solution, catheter near the bregma
Experimental: A second experiment was conducted to establish a procedure of IT administration to dogs to determine the maximum dose volume by IT administration of saline for 30 minutes. An approximately 1 mL of 0.5% Evans blue solution was administered to 4 anesthetized dogs via a catheter placed in the subarachnoid space near the bregma. After the administration, the animals were necropsied, and the CNS was macroscopically observed to verify the distribution of the Evans blue solution. In addition, 8 or 4 mL of saline, which is considered to be respectively approximately […] of a total volume of CSF, was administered to 6 unanesthetized dogs under a restrained condition. Saline was administered during the dosing and until 1 hour after dosing. The animals were necropsied on the next day of dosing and the CNS were macroscopically observed.

[1] = solubility of trehalose in water (saturated trehalose solution); assay type: physicochemical; settings: 20° C.
Experimental: FIGS. 4A-4G are graphs showing simulations of trehalose concentrations in human CSF to determine clinical dose regimens. The simulations assume that a CSF volume of a human is approximately 140 mL and that the CSF exchange rate is approximately […]. […] In the simulations, the trehalose is administered by a bolus injection, and is equally distributed in the CSF immediately after the injection. For the simulations below, a saturated trehalose solution was prepared by dissolving 68.9 g of trehalose per 100 g of water at 20° C.
FIG. 4A is a graph 400 showing a simulation of trehalose concentration 410 in human CSF to determine a clinical dose regimen. In this example simulation, 9.8 g of trehalose was estimated to be required to achieve a 7 wt % trehalose concentration in the CSF immediately after injection.

[2] = system: vasospasm associated with SAH; settings: animal studies; high concentrations (~7%) in cranial ventricles; cited from earlier work

SMILES: COc1ccccc1Oc1c(NS(=O)(=O)c2ccc(C)cn2)nc(-c2ccnc(-c3nnn[nH]3)c2)nc1OCCO [Clozasentan]
- effect on vasospasm (ET-1): reversal of vasospasms in large arteries

SMILES: Cc1cc(-c2ccc(/N=N/c3ccc4c(S(=O)(=O)O)cc(S(=O)(=O)O)c(N)c4c3O)c(C)c2)ccc1/N=N/c1ccc2c(S(=O)(=O)O)cc(S(=O)(=O)O)c(N)c2c1O [Evans blue solution, Evans blue]
- distribution after IT administration (macroscopic observation) (rats): distributed to the subarachnoid space of the cisterna magna, the bottom of the brain, and the cervical spinal cord in all animals
- distribution after IT administration (macroscopic observation) (dogs): distributed to the subarachnoid space of the whole cerebral cortex

SMILES: OC[C@H]1O[C@H](O[C@H]2O[C@H](CO)[C@@H](O)[C@H](O)[C@H]2O)[C@H](O)[C@@H](O)[C@@H]1O [trehalose]
- trehalose dissolved for a saturated solution [1]: 68.9 g per 100 g of water
- effect on inflammatory cascade and vasospasm associated with SAH [2]: significant inhibition of the inflammatory cascade and vasospasm
